Test system: Chlorella fusca (CF)
Assay: Algistatic finish (SM 023) of pure acrylate house paint
Assay type: cell-based
Conditions: without and with stress due to leaching; active compound concentration of 0.2% by weight based on house paint and test substance
Procedure: In separate batches, the test concentrations of the active compounds/products were incorporated into the house paint, and the fungicidal and/or algistatic finish was determined using the stated test methods.
Incorporation and testing were carried out according to the methods SM 022 and SM 023 below.
This laboratory method was employed for determining the resistance of house coatings to colonization by algae. For this method, house coatings on standardized paper are used as test substrate and Chlorella fusca is used as test alga. It is furthermore possible to use pure cultures of other algae species of practical relevance.
The experiments were carried out in Petri dishes on agar nutrient media.
50 g of the material to be finished were, in separate batches, mixed with various concentrations of the algicide to be examined and homogenized for 3-5 min using a basket stirrer.
Paper carrier materials having the dimensions 90×270 mm (Schleicher & Schüll No. 2589 B/X 24078) were coated with the test material. The paint and/or render samples were coated to a wet-layer thickness of 250 μm by knife coating. […] In the case of renders, the layer thickness depends, as in practice, on the particle size. The coated carrier materials, hereinbelow referred to as test bodies, were subsequently dried in a horizontal position for five days.
[…] The cross section of the container for the watering in the direction of flow was 1000±500 cm^2.
From the pretreated test bodies, three sample bodies having a diameter of 5 cm were punched out and sterilized in a Co^60 source using at least 10 kGy.
Aseptically, the samples were placed onto the algae nutrient media, and the centre of the sample was inoculated with 5 ml of each algae suspension.
The mixture of the algae suspensions was spread on the surface using a Drigalski spatula or an offset sterile glass rod.
During the growth phase at 22±2° C., the coated samples in the Petri dishes were irradiated with light of an intensity of about 1000 Lux (customary fluorescent tubes, type D 67 daylight). A cycle of in each case 12 hours of irradiation and 12 hours of storage in the dark was used.
The colonization of the samples by algae was examined and evaluated after two weeks. Evaluation was carried out visually. The evaluation of the samples was based on the following evaluation scale:
No growth of algae on the test bodies
Formation of an inhibitory zone or growth of algae on the nutrient medium up to the edge of the test bodies
Visible colonization of the test body by algae

COC(=O)Nc1nc2ccccc2[nH]1 [carbendazim, Methyl 1H-benzimidazol-2-ylcarbamate]
Algicidal action (in words): no algicidal action

Source: US6348483B1, “Use of derivatives of methylene-bis-oxazolidine and compositions obtained thereby” (Air Liquide Sante (International), priority 1998, dated 2002)
